Structures can show the parent of a compound that is named as a salt.
Tests used:
Format in all cases: physicochemical
[1] = Shear viscosity of base formulation with additives (TA Instruments AR-G2 rheometer); settings: 5% single additive, 25 C, shear rate 1 s^-1
Source text: Now referring to Table 3, the base formulations were made by mixing 1.5 or 3.0% of perfume R, 24% sodium undecyl sulfate (CAS#1072-24-8) active, 6% Lauramidopropyl Betaine (CAS#4292-10-8) active, and 60.4% deionized water which leaves 8% unfilled for oil addition and level studies (the balance being filled in by distilled water).
The complete formulations were made by adding the respective percentage of the agents from Table 3 into the base formulation, and filling the rest with deionized water to make 100% finished sample. The formulations were vortexed and put into oven at 60° C. overnight to form a homogeneous solution. For all formulations, the surfactant, water and additives including viscosity reducing agents are expected to be in a single phase.
The shear viscosity at 25 C for each formulations was measured at a shear rate of 1 s^−1 using a TA Instruments AR-G2 rheometer with a concentric cylinder attachment. Shear viscosities are reported in cP.

[2] = Kinematic viscosity of surfactant base formulation with added agent (calibrated Cannon viscometers); settings: for Kinematic viscosity at 40 C., 2% oil: 2% agent in base formulation; for Kinematic viscosity at 40 C., 4% oil: 4% agent in base formulation; for Kinematic viscosity at 40 C., 6% oil: 6% agent in base formulation; for Kinematic viscosity at 40 C., 8% oil: 8% agent in base formulation; for Lowest viscosity achieved: kinematic viscosity at 40° C., lowest over 2%, 4%, 6%, 8% agent in base formulation (24% sodium undecyl sulfate, 6% lauramidopropyl betaine, 1.6% perfume)
Source text: Referring to Tables 1 and 2, the base formulations were made by mixing 1.6% perfume, 24% sodium undecyl sulfate (CAS#1072-24-8) active, 6% lauramidopropyl betaine (CAS#4292-10-8) active and 60.4% deionized water which leaves 8% unfilled for the addition of a viscosity reducing agent (the balance being filled in by distilled water). For all compositions, the surfactant, water and additives including viscosity reducing agents were expected to be in a single phase.
The agents from Tables 1 and 2 were added to the base formulation at a percentage of 2%, 4%, 6%, and 8% into the above surfactant solution. The subsequent formulations were vortexed and put into oven at 60° C. overnight to form homogeneous solution. The viscosities of the formulations were measured with calibrated viscometers (Size 200/350/450) from Cannon Instrument Company (2139 High Tech Road, State College, Pa., USA, 16803).
After the equilibration, the formulations were drawn to reach the starting mark with a rubber suction bulb and the flow time between the starting mark and end mark was recorded for calculation. Each formulation was measured three times to calculate average and standard deviation. Between samples, viscometer was cleaned with water and acetone to rinse off residual.
Viscosity values were calculated based on the equation:
Viscosity (mm^2/s (cSt))=Time (s)*Constant (mm^2/s^2·(cSt/s))
The time in the above equation is the flow time recorded in the experiment and the constant numbers for each calibrated viscometer were obtained from the manuals.

[3] = SAXS correlation length of the micelles; settings: for Change in correlation length compared to control: control 51 A
Source text: Now referring to Table 4, SAXS (Small angle x-ray scattering) was used to characterize the structure of the surfactant aggregates. For these set of samples, the broad peak represents the correlation length (CL) of the micelles and was used to differentiate between the different formulations.
SAXS data was collected with a Bruker NanoSTAR (Bruker AXS Inc., Madison, Wis., U.S.A.) using the micro-focus, Cu x-ray tube, operating at 45 kV, 0.650 mA. The sample to detector distance was 112.050 cm and the detector was Vantec2K 2-dimensional area detector. Samples were placed in 2 mm quartz capillaries, sealed with expoxy resin to prevent evaporation. The sealant is permitted to cure for 2 hours at RT (room temperature) prior to loading into the SAXS sample chamber for data acquisition under vacuum with a data collection time of 1200 s. The data acquisition angular range is 0.3° to 3.0° […], to observe the presence and location of any intensity bands in the x-ray scattering pattern.
Each raw 2-D SAXS data is integrated azimuthally and plotted versus the scattering vector (q), which is expressed as a […] in units of angstroms (1/Å). • The values for q are calculated by the SAXS instrument according to the following equation: […]
Where: 2θ is the scattering angle; and λ is the wavelength used. For each formulation analyzed, the location of each intensity peak on the plot of (Intensity) I vs q is identified and recorded.

[4] = NMR self-diffusion coefficients and specific diffusivity ratio; settings: for Specific diffusivity ratio measured at 4%: diffusion coefficient of the viscosity reducing agent/diffusion coefficient of the surfactant, 4% additive; for Diffusion Coefficient (m^2/s) surfactant at 4% additive: surfactant self-diffusion
Description: Now referring to Table 5, the specified viscosity reducing agents were added to the formula at a level of 4% in absence of other viscosity reducing agents. Diffusion coefficients were determined using a vendor-supplied pulse sequence (“ledbpgq2s”, stimulated echo with bipolar gradients and convection compensation) using a Bruker Avance 700 MHz NMR spectrometer equipped with a Diff-30 high gradient diffusion probe. Gradient pulse durations ranged between 1700-2700 us, with diffusion periods ranging from 50-100 ms. 32 linearly-spaced gradient values were used ranging from 2%-95% of 40 A current, with resulting gradient strengths given by 30 Gauss/cm/A. Data were processed using software written in-house. It is often necessary to fit more than one diffusion coefficient to individual signals. Average diffusion coefficients are reported in these cases. Averages were calculated by averaging the reciprocals of the diffusion coefficients and then taking the reciprocal of that average.
The specific diffusivity ratio is calculated as the ratio of the diffusion coefficient of the viscosity reducing agent/diffusion coefficient of the surfactant.
Two mechanisms of viscosity reduction are hypothesized based on self-diffusion coefficients. This leads to a simple diagnostic measurement to classify perfumes by their mechanism of viscosity reduction. That diagnostic is the ratio of the perfume self-diffusion coefficient to the surfactant self-diffusion coefficient (specific diffusivity ratio). In mechanism 1, the surfactant diffusion coefficient is not reduced, and may be increased, while the perfume diffusion coefficient is faster still. In mechanism 2, the surfactant and perfume diffusion coefficient are reduced to relatively small, nearly equal values. For mechanism 1, the viscosity reducing agent diffuses faster than the surfactant (specific diffusivity ratio>1), whereas for mechanism 2, the viscosity reducing agent diffuses slower than the surfactant (specific diffusivity ratio<1).

Structure (SMILES) | Shear viscosity [cP] for mixture ([1]; 3.0% Royal Hue) | Kinematic viscosity at 40 C., 2% oil [2] | Kinematic viscosity at 40 C., 4% oil [2] | Kinematic viscosity at 40 C., 6% oil [2] | Kinematic viscosity at 40 C., 8% oil [2] | Lowest viscosity achieved [2] | Shear viscosity [cP] for mixture ([1]; 1.5% Royal Hue) | Correlation length peak [A] ([3]; 2% oil) | Change in correlation length compared to control ([3]; 2% oil) | Correlation length peak [A] ([3]; 4% oil) | Change in correlation length compared to control ([3]; 4% oil) | Specific diffusivity ratio measured at 4% [4] | Diffusion Coefficient (m^2/s) surfactant at 4% additive [4]
CC1=CCC2CC1C2(C)C (stereo not drawn) [alpha-Pinene] | 207 cP | – | – | – | – | – | – | – | – | – | – | – | –
C=C(C)[C@H]1CC=C(C)CC1 [Limonene] | 160 cP | 366.5 cSt | 166.8 cSt | 97.5 cSt | 86.4 cSt | 86 cSt | 40 cP | 57 A | 11.8% | 62 A | 21.6% | 0.7428 | 2.4338E−12 m^2/s
CC(=O)c1ccccc1 [Acetophenone] | 119 cP | – | – | – | – | – | – | – | – | – | – | – | –
CCOC(=O)CC(O)(CC(=O)OCC)C(=O)OCC [Triethyl Citrate] | – | 269.4 cSt | 136.6 cSt | 66.6 cSt | 40.5 cSt | 41 cSt | – | 50 A | −2.0% | 49 A | −3.9% | 3.9850 | 1.0196E−11 m^2/s
CCOC(=O)C1OC1(C)c1ccccc1 (stereo not shown) [Ethyl Methyl Phenyl Glycidate] | 163 cP | – | – | – | – | – | – | – | – | – | – | – | –
CC(=O)CCc1ccc(O)cc1 [Raspberry Ketone] | 110 cP | 151.9 cSt | 107.4 cSt | 54.0 cSt | 33.0 cSt | 33 cSt | 160 cP | 50 A | −2.0% | 49 A | −3.9% | 5.1364 | 9.5404E−12 m^2/s
CCCCCCCCCCCCCCCC [Hexadecane] | – | 21.1 cSt | 18.1 cSt | – | – | 18 cSt | – | 59 A | 15.7% | 66 A | 29.4% | 0.9998 | 4.1943E−12 m^2/s
CC12CCC(CC1)C(C)(C)O2 [Eucalyptol] | 376 cP | 527.3 cSt | 292.9 cSt | 203.1 cSt | – | 203 cSt | – | – | – | – | – | 1.5710 | 1.2262E−11 m^2/s
CC(C)=CCC/C(C)=C/COC(=O)Cc1ccccc1 [Geranyl Phenyl Acetate] | – | 224.0 cSt | 76.0 cSt | 34.3 cSt | 36.6 cSt | 34 cSt | – | 55 A | 7.8% | 60 A | 17.6% | 0.8119 | 3.6554E−12 m^2/s
CC(CC=O)CCCC(C)(C)O (stereo not shown) [Hydroxycitronellal] | 161 cP | 310.8 cSt | 145.4 cSt | 65.9 cSt | 34.1 cSt | 34 cSt | – | – | – | – | – | – | –

From patent publication US20160310389A1, “Low Viscosity Hair Care Composition” (The Procter & Gamble Company, priority 2015, published 2016)
